Test results: patent US12208095B2, “Methods of treating breast cancer with tetrahydronaphthalene derivatives as estrogen receptor degraders” (Arvinas Operations, Inc., priority 2019, dated 2025)

Target: T1, ERα (Homo sapiens, UniProt P03372)
T1 sequence (P03372 1-595): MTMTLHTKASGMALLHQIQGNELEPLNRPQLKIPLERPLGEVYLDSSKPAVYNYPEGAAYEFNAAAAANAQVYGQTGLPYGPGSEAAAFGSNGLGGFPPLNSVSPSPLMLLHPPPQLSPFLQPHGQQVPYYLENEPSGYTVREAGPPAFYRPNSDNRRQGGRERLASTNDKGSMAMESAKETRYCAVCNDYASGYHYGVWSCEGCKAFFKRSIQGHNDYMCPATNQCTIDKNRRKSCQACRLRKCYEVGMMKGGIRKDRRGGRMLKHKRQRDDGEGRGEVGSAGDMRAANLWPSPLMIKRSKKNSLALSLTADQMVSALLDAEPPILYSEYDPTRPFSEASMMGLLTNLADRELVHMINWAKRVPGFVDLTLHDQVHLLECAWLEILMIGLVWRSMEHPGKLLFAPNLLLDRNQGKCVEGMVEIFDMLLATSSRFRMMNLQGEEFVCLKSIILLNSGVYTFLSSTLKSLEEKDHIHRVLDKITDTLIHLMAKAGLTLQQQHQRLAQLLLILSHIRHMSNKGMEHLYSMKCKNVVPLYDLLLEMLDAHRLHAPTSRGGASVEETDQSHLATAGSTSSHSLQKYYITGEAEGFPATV
Test: ERα levels in tamoxifen-resistant MCF7 xenograft tumors (immunoblot)
Format: in vivo, Ovariectomized Nu/Nu female mice
Design: endogenous in cells; host or cells: tamoxifen-resistant MCF7 tumour fragments passaged in ovariectomized Nu/Nu mice
Conditions: study termination; Compound (I-c) 30 mg/kg; palbociclib 60 mg/kg; oral QDx28
Experimental: At study termination, the tumors were removed from the mice, and ERα levels were determined by immunoblotting the tumor homogenates. […] ERα levels from the various compound arms were compared to vehicle-treated animals by analyzing the tumor lysates on separate immunoblots (graphs in FIG. 10, FIG. 11, and FIG. 12 depict data from individual immunoblots) and the average ERα levels with standard deviation is shown.
Sampling: Tumors were measured twice weekly. Terminal sacrifice was ˜18 hr after last dose; tumors were harvested, divided, and flash frozen. ERα levels were determined by immunoblotting (see Appendix 1 for details).
Flash frozen tumors were removed from −80° C. storage and placed on dry ice. RIPA lysis buffer and Halt protease inhibitors were used at 400 μl per tumor sample. A steel ball (5 mm) was placed in each sample for tissue disruption. Samples were lysed with TissueLyzer at 24 Hz for 4 minutes. The homogenization was stopped half way through the process and the block flipped over for the duration of the process. […] Lysates were then measured for total protein concentration by BCA (per manufacturer's protocol). […]
Protein was transferred from gels to nitrocellulose with Bio-Rad Turbo on default setting. […] The blots were cut so that beta-actin and ERα can be detected from the same lane/sample. […]

In the case of O=C1CC[C@H](N2Cc3cc(N4CCN(CC5CCN(c6ccc([C@@H]7c8ccc(O)cc8CC[C@@H]7c7ccccc7)cc6)CC5)CC4)ccc3C2=O)C(=O)N1 [Compound (I-c), (3S)-3-[5-[4-[[1-[4-[(1R, 2S)-6-hydroxy-2-phenyl-tetralin-1-yl]phenyl]-4-piperidyl]methyl]piperazin-1-yl]-1-oxo-isoindolin-2-yl]piperidine-2,6-dione], the “reduction of tumor ERα levels compared to vehicle (% ERα ↓)” value was 73%.
